From EP0319906A2, “Novel quinoline derivatives, processes for preparation thereof and antibacterial agent containing them” (Dainippon Pharmaceutical Co., Ltd., priority 1987, dated 1989)
In brackets after ≈: the same amount, converted by molar mass.

How the values were obtained:
[1] = Urinary excretion in mice; assay type: in vivo
Experimental: A suspension containing Compound 1 was orally administered to mace at a dose of 5 mg/kg. Urine was collected over a period of 24 hours after administration. The level of the compound in urine was determined by the thin-layer cup-plated method using Escherichia coli kp as an indicator organism.

P. aeruginosa 12 = assay: In vitro antibacterial activity, twofold agar-dilution MIC; assay type: cell-based; conditions: Pseudomonas aeruginosa; P. aeruginosa 12; Mueller-Hinton agar, 20-hour incubation at 37 °C; calculated for free base; read-out: minimum inhibitory concentrations (MIC)
Procedure, shortened: (§1)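 Overnight Mueller-Hinton broth cultures were inoculated by loopful (about 10⁶ CFU) onto drug-containing agar. MIC was taken as the lowest concentration preventing visible growth, expressed in µg/ml as free base.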

S. aureus No. 80 = assay: as above; assay type: cell-based; conditions: Staphylococcus aureus; S. aureus No. 80; Mueller-Hinton agar, 20-hour incubation at 37 °C; calculated for free base; read-out: minimum inhibitory concentrations (MIC)
Procedure, shortened: as §1

E. coli P-5101 = assay: as above; assay type: cell-based; conditions: Escherichia coli, P5101; E. coli P-5101; Mueller-Hinton agar, 20-hour incubation at 37 °C; calculated for free base; read-out: minimum inhibitory concentrations (MIC)
Procedure, shortened: as §1

S. epidermidis No. 8 = assay: as above; assay type: cell-based; conditions: Staphylococcus epidermidis; S. epidermidis No. 8; Mueller-Hinton agar, 20-hour incubation at 37 °C; calculated for free base; read-out: minimum inhibitory concentrations (MIC)
Procedure, shortened: as §1

S. pyogenes A65 = assay: as above; assay type: cell-based; conditions: Streptococcus pyogenes; S. pyogenes A65; Mueller-Hinton agar, 20-hour incubation at 37 °C; calculated for free base; read-out: minimum inhibitory concentrations (MIC)
Procedure, shortened: as §1

S. marcescens S-9 = assay: as above; assay type: cell-based; conditions: Serratia marcescens, S9; S. marcescens S-9; Mueller-Hinton agar, 20-hour incubation at 37 °C; calculated for free base; read-out: minimum inhibitory concentrations (MIC)
Procedure, shortened: as §1

Compound: Cc1c(F)c(N2C[C@@H](C)N[C@@H](C)C2)c(F)c2c1c(=O)c(C(=O)O)cn2C1CC1 [Compound 1, 1-cyclopropyl-6,8-difluoro-5-methyl-7-(cis-3,5-demethyl-1-piperazinyl)-1,4-dihydro-4-oxoquinoline-3-carboxylic acid]
- Amount ([1]; amount in urine over 24 hours after oral 5 mg/kg): 0.105 mg
- dose excreted at 24 h ([1]; mouse, in vivo, oral 5 mg/kg, mice, read-out: Urinary recovery for 24 hours): 12.7%
- Volume ([1]; urine collected over 24 hours after oral 5 mg/kg): 14.0 mL
- MIC (P. aeruginosa 12): 0.2 µg/mL (≈ 0.511 µM)
- MIC (S. aureus No. 80): 0.0125 µg/mL (≈ 0.0319 µM)
- MIC (E. coli P-5101): 0.025 µg/mL (≈ 0.0639 µM)
- MIC (S. epidermidis No. 8): 0.025 µg/mL (≈ 0.0639 µM)
- MIC (S. pyogenes A65): 0.2 µg/mL (≈ 0.511 µM)
- MIC (S. marcescens S-9): 0.39 µg/mL (≈ 0.996 µM)
